Earlier results on one molecule are cited in patent US20080268043A1, “Controlled Release Compositions Comprising an Antipsychotic Agent” (ELAN PHARMA INTERNATIONAL LIMITED, priority 2005, published 2008).

For this data set the following is noted: within the proposed clinical dose range.

Molecules are shown by their SMILES.

For `OCCOCCN1CCN(C2=Nc3ccccc3Sc3ccccc32)CC1` [quetiapine], the mean terminal half-life result is listed as “about 6 hours”.
